Test results as given in patent US20250144067A1, “PERSONALIZED STARVATION THERAPY FOR CANCER” (Faeth Therapeutics, Inc., priority 2021, published 2025).
Where a name gives a salt, the structure may show the parent alone. Read-outs that look alike come from different tables or passages of the source.

Tests used:
[1] = test system: NCI-H292 lung cancer cells; test: FDA drug screening, complete media vs cholesterol-free media without statin (TABLE 1); assay type: cell-based, human
[2] = test system: NCI-H292 lung cancer cells; test: FDA drug screening, complete media vs cholesterol-free media with simvastatin (TABLE 2); assay type: cell-based, human
[3] = NCI-H292 cells, cholesterol-free media without statin
[4] = complete vs cholesterol-free media, greater than 0 enhanced anti-cancer activity, about 0 neutral, below 0 antagonists
[5] = NCI-H292 cells, FDA drug library screen, cholesterol-free media with simvastatin 0.04 μM
[6] = NCI-H292 cells, FDA drug library screen, complete media
[7] = complete media minus cholesterol-free media + simvastatin, >0 enhanced anti-cancer activity, about 0 neutral, <0 antagonist
[8] = Complete minus Cholesterol-free, […]
[9] = NCI-H292 cells, drug in cholesterol-free media with simvastatin 0.04 μM
[10] = NCI-H292 cells, drug in complete media
[11] = complete media vs cholesterol-free media + simvastatin (0.04 μM), […]
[12] = Complete minus Cholesterol-free, greater than 0 enhanced anti-cancer activity, about 0 neutral, below 0 antagonist
[13] = NCI-H292 cells, FDA drug library screen, cholesterol-free media without statin
[14] = NCI-H292 cells, FDA library drug in cholesterol-free media with simvastatin 0.04 μM
[15] = NCI-H292 cells, FDA library drug in complete media
[16] = complete media vs cholesterol-free media + simvastatin (0.04 μM), >0 enhanced anti-cancer activity, about 0 neutral, <0 antagonist
[17] = NCI-H292 cells, cholesterol-free media with simvastatin 0.04 μM, cell growth value in FDA drug screen
[18] = NCI-H292 cells, complete media, cell growth value in FDA drug screen
[19] = Complete minus Cholesterol-free, greater than 0 enhanced anti-cancer activity, about 0 neutral, below 0 antagonists
[20] = NCI-H292 cells in cholesterol-free media without statin
[21] = NCI-H292 cells in complete media
[22] = NCI-H292 cells, cholesterol-free media without statin, FDA drug library screen
[23] = NCI-H292 cells, complete media, FDA drug library screen
[24] = complete vs cholesterol-free media, […]
[25] = Complete minus Cholesterol-free, >0 enhanced anti-cancer activity, about 0 neutral, <0 antagonist
[26] = NCI-H292 cells, cholesterol-free media with simvastatin 0.04 μM, FDA drug library screen (TABLE 2)
[27] = NCI-H292 cells, complete media, FDA drug library screen (TABLE 2)
[28] = complete media minus cholesterol-free media + simvastatin (0.04 μM), >0 enhanced anti-cancer activity, about 0 neutral, <0 antagonist

## Cc1ncc([N+](=O)[O-])n1CC(O)CN1CCOCC1 (stereo not shown) [Morinidazole]
[1]; [3]
  Cholesterol-free: 1.15
[1]; NCI-H292 cells, complete media
  Complete: 0.8164
[1]; [4]
  Difference: −0.33
[2]; [5]
  Cholesterol-free media + simvastatin (0.04 μM): 1.535
[2]; [6]
  Complete Media: 1.676
[2]; [7]
  Difference: 0.14

## Cn1c(CCCC(=O)O)nc2cc(N(CCCl)CCCl)ccc21 [Bendamustine (hydrochloride)]
[1]; [8]
  Difference: −0.21
[1]; [3]
  Cholesterol-free: 1.195
[1]; NCI-H292 cells, complete media
  Complete: 0.9866
[2]; [9]
  Cholesterol-free media + simvastatin (0.04 μM): 1.142
[2]; [10]
  Complete Media: 0.9554
[2]; [11]
  Difference: −0.19

## CC(=O)N(CC(O)CO)c1c(I)c(C(=O)NCC(O)CO)c(I)c(C(=O)NCC(O)CO)c1I (stereo not shown) [Iohexol]
[1]; [12]
  Difference: −0.14
[1]; [13]
  Cholesterol-free: 1.062
[1]; [6]
  Complete: 0.9228
[2]; [14]
  Cholesterol-free media + simvastatin (0.04 μM): 1.632
[2]; [15]
  Complete Media: 0.8317
[2]; [16]
  Difference: −0.80

## O=C(Cn1cnnn1)N[C@@H]1C(=O)N2C(C(=O)O)=C(CSc3nncs3)CS[C@H]12 [Ceftezole (sodium)]
[1]; [12]
  Difference: −0.11
[1]; [13]
  Cholesterol-free: 1.089
[1]; [6]
  Complete: 0.9806
[2]; [17]
  Cholesterol-free media + simvastatin (0.04 μM): 1.052
[2]; [18]
  Complete Media: 1.1
[2]; [7]
  Difference: 0.05

## CN(C/C=C/c1ccccc1)Cc1cccc2ccccc12 [Naftifine (hydrochloride)]
[1]; [19]
  Difference: −0.88
[1]; [20]
  Cholesterol-free: 1.921
[1]; [21]
  Complete: 1.037
[2]; [5]
  Cholesterol-free media + simvastatin (0.04 μM): 0.9055
[2]; [6]
  Complete Media: 1.136
[2]; [7]
  Difference: 0.23

## COc1cc([C@@H]2c3cc4c(cc3[C@@H](O[C@@H]3O[C@@H]5CO[C@@H](c6cccs6)O[C@H]5[C@H](O)[C@H]3O)[C@H]3COC(=O)[C@H]23)OCO4)cc(OC)c1O [Teniposide]
[1]; [12]
  Difference: −0.09
[1]; [13]
  Cholesterol-free: 0.1831
[1]; [6]
  Complete: 0.09739
[2]; [9]
  Cholesterol-free media + simvastatin (0.04 μM): 0.3807
[2]; [10]
  Complete Media: 0.1883
[2]; [16]
  Difference: −0.19

## Sorafenib (Tosylate)
[1]; [22]
  Cholesterol-free: 0.8797
[1]; [23]
  Complete: 0.9619
[1]; [24]
  Difference: 0.08
[2]; [5]
  Cholesterol-free media + simvastatin (0.04 μM): 1.142
[2]; [11]
  Difference: −0.09

## Nc1nc(N)nc(-c2cc(Cl)ccc2Cl)n1 [Irsogladine]
[1]; [25]
  Difference: −0.28
[1]; [3]
  Cholesterol-free: 1.27
[1]; NCI-H292 cells, complete media
  Complete: 0.9941
[2]; [9]
  Cholesterol-free media + simvastatin (0.04 μM): 1.185
[2]; [10]
  Complete Media: 0.995
[2]; [16]
  Difference: −0.19

## OCc1ccc(O[C@@H]2O[C@H](CO)[C@@H](O)[C@H](O)[C@H]2O)cc1 [Gastrodin]
[1]
  Cholesterol-free: 1.466
  Complete: 1.162
  Difference: −0.30
[2]
  Cholesterol-free media + simvastatin (0.04 μM): 1.131
  Complete Media: 1.355
  Difference: 0.22

## CC1(C)[C@@H](OC(=O)CCC(=O)O)CC[C@]2(C)[C@H]3C(=O)C=C4[C@@H]5C[C@@](C)(C(=O)O)CC[C@]5(C)CC[C@@]4(C)[C@]3(C)CC[C@@H]12 [Carbenoxolone (disodium)]
[1]; [25]
  Difference: −0.05
[1]; [22]
  Cholesterol-free: 1.149
[1]; [23]
  Complete: 1.095
[2]; [26]
  Cholesterol-free media + simvastatin (0.04 μM): 0.9745
[2]; [27]
  Complete Media: 0.9823
[2]; [28]
  Difference: 0.01

## CCC(=O)Oc1ccc2c(c1)CC[C@@H]1[C@@H]2CC[C@]2(C)[C@@H](OC(=O)CC)CC[C@@H]12 [Estradiol dipropionate]
[1]; [8]
  Difference: −0.07
[1]; [13]
  Cholesterol-free: 0.9963
[1]; [6]
  Complete: 0.9247
[2]; [14]
  Cholesterol-free media + simvastatin (0.04 μM): 1.891
[2]; [15]
  Complete Media: 1.522
[2]; [11]
  Difference: −0.37

## Cc1cc(C#N)cc(C)c1Oc1nc(Nc2ccc(C#N)cc2)nc(N)c1Br [Etravirine]
[1]; [19]
  Difference: −0.49
[1]; [20]
  Cholesterol-free: 1.424
[1]; [21]
  Complete: 0.9362
[2]; [26]
  Cholesterol-free media + simvastatin (0.04 μM): 0.8346
[2]; [27]
  Complete Media: 0.8071
[2]; [28]
  Difference: −0.03

## CN(C)c1cc(NC(=O)CNC(C)(C)C)c(O)c2c1C[C@H]1C[C@H]3[C@H](N(C)C)C(O)=C(C(N)=O)C(=O)[C@@]3(O)C(O)=C1C2=O [Tigecycline (tetramesylate)]
[1]; [25]
  Difference: 0.02
[1]; [22]
  Cholesterol-free: 0.1191
[1]; [23]
  Complete: 0.1424
[2]; [5]
  Cholesterol-free media + simvastatin (0.04 μM): 0.4075
[2]; [6]
  Complete Media: 0.333
[2]; [16]
  Difference: −0.07

## COc1c(-c2ccc3cc(NS(C)(=O)=O)ccc3c2)cc(-n2ccc(=O)[nH]c2=O)cc1C(C)(C)C [Dasabuvir]
[1]; [3]
  Cholesterol-free: 1.225
[1]; NCI-H292 cells, complete media
  Complete: 0.8287
[1]; [4]
  Difference: −0.40
[2]; [26]
  Cholesterol-free media + simvastatin (0.04 μM): 1.1
[2]; [27]
  Complete Media: 1.064
[2]; [28]
  Difference: −0.04

## CS(=O)(=O)c1cccc(C[C@H](NC(=O)c2c(Cl)cc3c(c2Cl)CCN(C(=O)c2ccc4ccoc4c2)C3)C(=O)O)c1 [Lifitegrast]
[1]; [12]
  Difference: −0.15
[1]; [13]
  Cholesterol-free: 1.11
[1]; [6]
  Complete: 0.9552
[2]; [5]
  Cholesterol-free media + simvastatin (0.04 μM): 1.009
[2]; [6]
  Complete Media: 0.8652
[2]; [16]
  Difference: −0.14

## Polymyxin B (Sulfate)
[1]; [8]
  Difference: −0.03
[1]; [22]
  Cholesterol-free: 0.9793
[1]; [23]
  Complete: 0.9463
[2]; [9]
  Cholesterol-free media + simvastatin (0.04 μM): 1.169
[2]; [10]
  Complete Media: 0.9427
[2]; [11]
  Difference: −0.23

## Methylergometrine (maleate)
[1]; [3]
  Cholesterol-free: 1.022
[1]; [24]
  Difference: −0.31
[2]; [5]
  Cholesterol-free media + simvastatin (0.04 μM): 1.017
[2]; [6]
  Complete Media: 0.9007
[2]; [11]
  Difference: −0.12

## Cc1cc(NS(=O)(=O)c2ccc(N)cc2)no1 [Sulfamethoxazole]
[1]; [3]
  Cholesterol-free: 1.301
[1]; NCI-H292 cells, complete media
  Complete: 0.8647
[1]; [4]
  Difference: −0.44
[2]; [9]
  Cholesterol-free media + simvastatin (0.04 μM): 1.223
[2]; [10]
  Complete Media: 1.051
[2]; [16]
  Difference: −0.17

## CC(C(=O)O)c1cccc(C(=O)c2ccccc2)c1 (stereo not shown) [Ketoprofen]
[1]; [3]
  Cholesterol-free: 1.284
[1]; NCI-H292 cells, complete media
  Complete: 0.8938
[1]; [4]
  Difference: −0.39
[2]; [17]
  Cholesterol-free media + simvastatin (0.04 μM): 0.9565
[2]; [18]
  Complete Media: 0.9752
[2]; [7]
  Difference: 0.02

## N[C@@H](Cc1ccccc1)C(=O)O [L-Phenylalanine]
[1]; [25]
  Difference: −0.24
[1]; [3]
  Cholesterol-free: 1.103
[1]; NCI-H292 cells, complete media
  Complete: 0.8607
[2]; [9]
  Cholesterol-free media + simvastatin (0.04 μM): 0.988
[2]; [10]
  Complete Media: 0.7918
[2]; [16]
  Difference: −0.20

## CC1CCC(C(C)C)C(O)C1 (stereo not shown) [Menthol]
[1]; [22]
  Cholesterol-free: 0.9443
[1]; [23]
  Complete: 1.129
[1]; complete vs cholesterol-free media, >0 enhanced anti-cancer activity, about 0 neutral, <0 antagonist
  Difference: 0.19
[2]; [9]
  Cholesterol-free media + simvastatin (0.04 μM): 1.031
[2]; [10]
  Complete Media: 0.8642
[2]; [16]
  Difference: −0.17

## CC(O)(CS(=O)(=O)c1ccc(F)cc1)C(=O)Nc1ccc(C#N)c(C(F)(F)F)c1 (stereo not shown) [Bicalutamide]
[1]; [25]
  Difference: 0.00
[1]; [22]
  Cholesterol-free: 1.018
[1]; [23]
  Complete: 1.016
[2]; [5]
  Cholesterol-free media + simvastatin (0.04 μM): 1.219
[2]; [6]
  Complete Media: 1.09
[2]; [16]
  Difference: −0.13
